Source: patent US20060052396A1, “Arylamines for the treatment of conditions associated with gsk-3” (priority 2001, published 2006)

melting point: 221.5 to 223 °C
SMILES: CN(C)S(=O)(=O)c1ccccc1-c1cnc(N)c(C(=O)Nc2cccnc2)n1 [Example 235, 3-Amino-6-{2-[(dimethylamino)sulfonyl]phenyl}-N-pyridin-3-ylpyrazine-2-carboxamide]
